Structures are written as SMILES.

For the first test, the target named is T1, human GlyT1c transporter (Homo sapiens, UniProt P48067).
T1 construct: expressed in transfected cells; host or cells: CHO cells (recombinant; line hGlyT1c_5_CHO is named for the uptake assay)
T1 sequence (P48067 1-706): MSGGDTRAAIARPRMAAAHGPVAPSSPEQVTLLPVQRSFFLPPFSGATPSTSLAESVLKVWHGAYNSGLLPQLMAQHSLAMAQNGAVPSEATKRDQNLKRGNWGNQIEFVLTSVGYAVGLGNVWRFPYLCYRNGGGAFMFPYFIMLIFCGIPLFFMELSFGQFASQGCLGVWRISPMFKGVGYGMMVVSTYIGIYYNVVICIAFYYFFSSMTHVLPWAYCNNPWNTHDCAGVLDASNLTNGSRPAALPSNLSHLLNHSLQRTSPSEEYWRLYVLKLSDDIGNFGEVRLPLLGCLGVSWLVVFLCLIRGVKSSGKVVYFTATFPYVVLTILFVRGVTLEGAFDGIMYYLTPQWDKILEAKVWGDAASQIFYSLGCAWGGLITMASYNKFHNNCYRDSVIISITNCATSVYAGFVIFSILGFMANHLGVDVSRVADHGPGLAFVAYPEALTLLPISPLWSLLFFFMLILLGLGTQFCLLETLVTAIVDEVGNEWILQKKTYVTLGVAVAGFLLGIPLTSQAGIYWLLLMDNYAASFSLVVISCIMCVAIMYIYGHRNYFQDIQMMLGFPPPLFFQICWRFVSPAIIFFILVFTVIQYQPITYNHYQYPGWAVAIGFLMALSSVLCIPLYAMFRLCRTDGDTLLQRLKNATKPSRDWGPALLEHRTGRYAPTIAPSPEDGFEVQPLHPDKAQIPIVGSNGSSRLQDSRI
Briefly: Radioligand binding assay using recombinant CHO cell membranes expressing human GlyT1. As to conditions: radioligand binding to human GlyT1c transporter-expressing membranes. The text has this: 2. Radioligand binding assays using recombinant CHO cell membranes expressing human GlyT1: […]
One may read the Ki as a dissociation constant, usually derived from enzyme kinetics or from competition with a known ligand. Consider `Cn1cnc(S(=O)(=O)N2C[C@H](NCc3sc4ccccc4c3Cl)[C@@H](c3ccccc3)C2)c1` [Example 440, (3R,4S)-N-[(3-chloro-1-benzothiophen-2-yl)methyl]-1-[(1-methyl-1H-imidazol-4-yl)sulfonyl]-4-phenylpyrrolidin-3-amine], for which the Ki was at most 0.1 µM.

Turning to `Cn1cnc(S(=O)(=O)N2C[C@H](Nc3cc(C4CC4)ncn3)[C@@H](c3ccccc3)C2)c1` [Example 612, 6-cyclopropyl-N-{(3R,4S)-1-[(1-methyl-1H-imidazol-4-yl)sulfonyl]-4-phenylpyrrolidin-3-yl}pyrimidin-4-amine], the inhibition constant (Ki) was at most 1 µM.

As to `Cn1cnc(S(=O)(=O)N2C[C@@H](Nc3cccc(Cl)c3)[C@H](c3cccc(F)c3)C2)c1` (relative stereo) [Example 188, trans-N-(3-chlorophenyl)-4-(3-fluorophenyl)-1-[(1-methyl-1H-imidazol-4-yl)sulfonyl]pyrrolidin-3-amine], the Ki is at most 0.1 µM.

On to `Cc1cccc(C(=O)N[C@@H]2CN(S(=O)(=O)c3cn(C)cn3)C[C@H]2c2ccccc2)c1` (relative stereo) [Example 23, 3-methyl-N-{trans-1-[(1-methyl-1H-imidazol-4-yl)sulfonyl]-4-phenylpyrrolidin-3-yl}benzamide], for which the inhibition constant Ki was at most 10 µM.

Consider `Cc1cccc(N[C@@H]2CN(S(=O)(=O)c3cn(C)cn3)C[C@H]2c2ccccc2)c1` (relative stereo) [Example 58, trans-1-[(1-methyl-1H-imidazol-4-yl)sulfonyl]-N-(3-methylphenyl)-4-phenylpyrrolidin-3-amine], for which the inhibitory constant (Ki) was at most 0.1 µM.

Take `Cn1cnc(S(=O)(=O)N2C[C@@H](Nc3ccc(C(F)(F)F)cc3)[C@H](c3cccc(F)c3)C2)c1` (relative stereo) [Example 190, trans-4-(3-fluorophenyl)-1-[(1-methyl-1H-imidazol-4-yl)sulfonyl] -N-[4-(trifluoromethyl)phenyl]pyrrolidin-3-amine]: the Ki was at most 1 µM.

On to `Cn1cnc(S(=O)(=O)N2C[C@@H](CNc3ccc(C(F)(F)F)c(Cl)c3)[C@H](c3ccc(F)cc3)C2)c1` (relative stereo) [Example 311, 3-chloro-N-({trans-4-(4-fluorophenyl)-1-[(1-methyl-1H-imidazol-4-yl)sulfonyl]pyrrolidin-3-yl}methyl)-4-(trifluoromethyl)aniline], for which the Ki is at most 1 µM.

`Cn1cnc(S(=O)(=O)N2C[C@@H](Nc3ccncc3)[C@H](c3ccccc3)C2)c1` (relative stereo) [Example 209, N-{trans-1-[(1-methyl-1H-imidazol-4-yl)sulfonyl]-4-phenylpyrrolidin-3-yl}pyridin-4-amine]: the Ki is at most 10 µM.

Take `Cn1cnc(S(=O)(=O)N2C[C@H](Nc3cccc(C(F)(F)F)c3)[C@@H](c3ccccc3)C2)c1` [Example 397, (3R,4S)-1-[(1-methyl-1H-imidazol-4-yl)sulfonyl]-4-phenyl-N-[3-(trifluoromethyl)phenyl]pyrrolidin-3-amine]: the inhibition constant Ki was at most 0.01 µM.

In the case of `Cc1cccc(OC[C@@H]2CN(S(=O)(=O)c3cn(C)cn3)C[C@H]2c2ccc(F)cc2)c1` (relative stereo) [Example 296, 4-({trans-3-(4-fluorophenyl)-4-[(3-methylphenoxy)methyl]pyrrolidin-1-yl}sulfonyl)-1-methyl-1H-imidazole], the Ki was at most 0.1 µM.

In the case of `COCCCNC(=O)[C@H]1CN(S(=O)(=O)c2cn(C)cn2)C[C@@H]1c1ccc(F)cc1` [Example 583, (3R,4S)-4-(4-fluorophenyl)-N-(3-methoxypropyl)-1-[(1-methyl-1H-imidazol-4-yl)sulfonyl]pyrrolidine-3-carboxamide], the Ki is at most 10 µM.

With `Cn1cnc(S(=O)(=O)N2C[C@@H](Nc3ccc4ccncc4c3)[C@H](c3ccccc3)C2)c1` (relative stereo) [Example 241, N-{trans-1-[(1-methyl-1H-imidazol-4-yl)sulfonyl]-4-phenylpyrrolidin-3-yl}isoquinolin-7-amine], the inhibition constant (Ki) was at most 10 µM.

For the molecule `Cn1cnc(S(=O)(=O)N2C[C@@H](CNCC3CC3)[C@H](c3ccc(F)cc3)C2)c1` [Example 607, 1-cyclopropyl-N-({(3R,4R)-4-(4-fluorophenyl)-1-[(1-methyl-1H-imidazol-4-yl)sulfonyl]pyrrolidin-3-yl}methyl)methanamine], the Ki was at most 10 µM.

Turning to `N#Cc1ccccc1S(=O)(=O)N1C[C@@H](Nc2cccc(Cl)c2)[C@H](c2ccccc2)C1` (relative stereo) [Example 528, 2-({Trans-3-[(3-chlorophenyl)amino]-4-phenylpyrrolidin-1-yl}sulfonyl)benzonitrile], the Ki was over 10 µM.

In the case of `Cn1cnc(S(=O)(=O)N2CC(Nc3ccc(F)c(F)c3)C(C3CCCO3)C2)c1` (stereo not drawn) [Example 610, N-(3,4-difluorophenyl)-1-[(1-methyl-1H-imidazol-4-yl)sulfonyl]-4-[-tetrahydrofuran-2-yl]pyrrolidin-3-amine], the Ki is at most 10 µM.

On to `Cn1cnc(S(=O)(=O)N2C[C@@H](Nc3cccc(C#N)c3F)[C@H](c3ccccc3)C2)c1` (relative stereo) [Example 77, 2-fluoro-3-({trans-1-[(1-methyl-1H-imidazol-4-yl)sulfonyl]-4-phenylpyrrolidin-3-yl}amino)benzonitrile], for which the Ki was at most 1 µM.

In the case of `Cn1cnc(S(=O)(=O)N2C[C@@H](Nc3cncc(F)c3)[C@H](c3ccccc3)C2)c1` (relative stereo) [Example 237, 5-fluoro-N-{trans-1-[(1-methyl-1H-imidazol-4-yl)sulfonyl]-4-phenylpyrrolidin-3-yl}pyridin-3-amine], the Ki is at most 10 µM.

Take `Cn1cnc(S(=O)(=O)N2C[C@@H](Nc3ccc(C#N)c(F)c3)[C@H](c3ccc(F)cc3)C2)c1` (relative stereo) [Example 342, 2-fluoro-4-({trans-4-(4-fluorophenyl)-1-[(1-methyl-1H-imidazol-4-yl)sulfonyl]pyrrolidin-3-yl}amino)benzonitrile]: the Ki was at most 10 µM.

On to `Cn1cnc(S(=O)(=O)N2C[C@@H](NC(=O)C3(C(F)(F)F)CC3)[C@H](c3ccccn3)C2)c1` (relative stereo) [Example 374, N-[Trans-1-[(1-methyl-1H-imidazol-4-yl)sulfonyl]-4-(pyridin-2-yl)pyrrolidin-3-yl]-1-(trifluoromethyl)cyclopropanecarboxamide], for which the Ki is at least 10 µM.

As to `CCCNC(=O)[C@@H]1CN(S(=O)(=O)c2cn(C)cn2)C[C@H]1c1ccc(F)cc1` [Example 580, (3S,4R)-4-(4-fluorophenyl)-1-[(1-methyl-1H-imidazol-4-yl)sulfonyl]-N-propylpyrrolidine-3-carboxamide], the inhibition constant (Ki) was at most 1 µM.

Turning to `CCCC(C)CN[C@H]1CN(S(=O)(=O)c2cn(C)cn2)C[C@@H]1c1ccccc1` (stereo partly drawn) [Example 446, (3R,4S)-1-[(1-methyl-1H-imidazol-4-yl)sulfonyl]-N-(2-methylpentyl)-4-phenylpyrrolidin-3-amine], the inhibition constant Ki is at most 0.1 µM.

`Cn1cnc(S(=O)(=O)N2C[C@H](Nc3cc(F)ccn3)[C@@H](c3ccccc3)C2)c1` [Example 405, 4-fluoro-N-{(3R,4S)-1-[(1-methyl-1H-imidazol-4-yl)sulfonyl]-4-phenylpyrrolidin-3-yl}pyridin-2-amine]: the inhibition constant Ki is at most 1 µM.

In the case of `Cn1cnc(S(=O)(=O)N2C[C@H](NCc3cncc(-c4ccc(F)cc4)c3)[C@@H](c3ccccc3)C2)c1` [Example 445, (3R,4S)-N-{[5-(4-fluorophenyl)pyridin-3-yl]methyl}-1-[(1-methyl-1H-imidazol-4-yl)sulfonyl]-4-phenylpyrrolidin-3-amine], the Ki was at most 1 µM.

Turning to `CCCCN(CCCC)C(=O)[C@@H]1CN(S(=O)(=O)c2cn(C)cn2)C[C@H]1c1ccc(F)cc1` (relative stereo) [Example 636, Trans-N,N-dibutyl-4-(4-fluorophenyl)-1-[(1-methyl-1H-imidazol-4-yl)sulfonyl]pyrrolidine-3-carboxamide], the Ki was at most 1 µM.

The test is the same for the next values; noted with them: radioligand binding, recombinant CHO cell membranes expressing human GlyT1c.
Turning to `Cn1cnc(S(=O)(=O)N2C[C@@H](Nc3cccc(OCC(F)(F)F)c3)[C@H](C3CCOC3)C2)c1` (relative stereo) [Example 834, trans-1-[(1-methyl-1H-imidazol-4-yl)sulfonyl]-4-(tetrahydrofuran-3-yl)-N-[3-(2,2,2-trifluoroethoxy)phenyl]pyrrolidin-3-amine], the Ki is at most 1 µM.

For the molecule `CCCCCCNC1CN(S(=O)(=O)c2cn(C)cn2)CC1[C@H]1CCCO1` (stereo partly drawn) [Example 820, N-Hexyl-1-[(1-methyl-1H-imidazol-4-yl)sulfonyl]-4-[(2R)-tetrahydrofuran-2-yl]pyrrolidin-3-amine], the Ki was at most 10 µM.

For `Cn1cnc(S(=O)(=O)N2C[C@@H](Nc3cccc(C(F)(F)F)c3)[C@H](C3CCOC3)C2)c1` (relative stereo) [Example 827, trans-1-[(1-methyl-1H-imidazol-4-yl)sulfonyl]-4-(tetrahydrofuran-3-yl)-N-[3 - (trifluoromethyl)phenyl]pyrrolidin-3-amine], the Ki is at most 1 µM.

For the origin of these results see patent publication EP2970215B1, “PYRROLIDINE DERIVATIVES, PHARMACEUTICAL COMPOSITIONS CONTAINING THEM, AND THEIR USE IN THERAPY” (AbbVie Deutschland GmbH & Co. KG, priority 2013, dated 2014).
